According to the NIST ThermoML archive (doi:10.1016/j.tca.2007.07.015):

Assay: excess molar enthalpy (molar enthalpy of mixing); xn = mol fraction of the nth substance listed
Conditions: 973 K, Liquid, Calvet calorimetry

[Pb] [lead] + [Ag]
Conditions	excess molar enthalpy [kcal/mol]
101.3 kPa, x2 = 0.2	0.555

[Pb] [lead] + [Au]
101 kPa
Conditions	excess molar enthalpy [kcal/mol]
x2 = 0.0446	-0.0574
x2 = 0.0465	-0.0433
x2 = 0.0726	-0.0915
x2 = 0.0864	-0.111
x2 = 0.0922	-0.0825
x2 = 0.1272	-0.151
x2 = 0.1358	-0.127
x2 = 0.1368	-0.154
x2 = 0.1653	-0.174
x2 = 0.1768	-0.159
x2 = 0.1938	-0.189
x2 = 0.2	-0.212
x2 = 0.2003	-0.202
x2 = 0.2148	-0.187
x2 = 0.2333	-0.209
x2 = 0.2482	-0.212
x2 = 0.2506	-0.204
x2 = 0.2652	-0.228
x2 = 0.2841	-0.22
x2 = 0.2962	-0.24
x2 = 0.2966	-0.228
x2 = 0.3161	-0.222
x2 = 0.3226	-0.244
x2 = 0.3436	-0.235
x2 = 0.3455	-0.232
x2 = 0.3733	-0.235
x2 = 0.3862	-0.239
x2 = 0.4	-0.257
x2 = 0.402	-0.241
x2 = 0.4248	-0.241
x2 = 0.4294	-0.248
x2 = 0.4416	-0.249
